Tests used:
[1] = molecular target: T1, PDE4A1 (Mus musculus, UniProt O89084); assay: 5FOA growth assay (high throughput screen, ED50) in fission yeast strain expressing PDE4A1; format: cell-based; conditions: high throughput 5FOA growth screen; greater than 8.53 = statistically-significant inhibitor
T1 construct: targets used in the assays are full-length proteins (as opposed to simply the catalytic domain); expressed in transfected cells; host or cells: Schizosaccharomyces pombe, PDE gene integrated in place of cgs2
T1 sequence (O89084 1-610 isoform O89084-2): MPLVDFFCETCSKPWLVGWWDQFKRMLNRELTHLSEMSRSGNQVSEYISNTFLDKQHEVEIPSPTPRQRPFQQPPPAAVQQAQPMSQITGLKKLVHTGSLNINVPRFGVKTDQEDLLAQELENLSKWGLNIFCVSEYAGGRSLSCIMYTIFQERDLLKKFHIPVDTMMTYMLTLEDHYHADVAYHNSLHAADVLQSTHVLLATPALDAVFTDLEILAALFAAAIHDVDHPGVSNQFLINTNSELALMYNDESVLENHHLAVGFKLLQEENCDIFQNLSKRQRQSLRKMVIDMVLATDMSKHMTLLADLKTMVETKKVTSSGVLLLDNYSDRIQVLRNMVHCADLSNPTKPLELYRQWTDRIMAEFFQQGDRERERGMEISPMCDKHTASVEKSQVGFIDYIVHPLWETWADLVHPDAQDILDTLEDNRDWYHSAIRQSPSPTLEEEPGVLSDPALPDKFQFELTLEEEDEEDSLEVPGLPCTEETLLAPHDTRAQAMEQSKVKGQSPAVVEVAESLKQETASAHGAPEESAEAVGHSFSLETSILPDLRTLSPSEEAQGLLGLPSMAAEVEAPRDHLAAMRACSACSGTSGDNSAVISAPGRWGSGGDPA
Description: (§1) High throughput drug screens were carried out at the Broad Institute's Chemical Biology Program screening facility (Broad Institute, Cambridge, Mass.). Depending upon the strain, cultures were pregrown to exponential phase in EMM complete medium containing from 0.5 to 2.5 mM cAMP to repress fbp1-ura4 transcription. […] Starting cell concentrations ranged from 0.5×10^5 to 4×10^5 cells/ml depending on the screening strain. […] Other positive control dishes contained 5 mM cAMP in the 5FOA medium. Cultures were grown for 48 hours at 30° C., sealed in an airtight container with moist paper towels to prevent evaporation. Optical densities (OD600) of cultures were measured using a microplate reader. Bioinformatic analysis of the results to determine composite Z scores was performed as previously described^30, 31.
(§2) To determine whether the 5FOA growth phenotype could be exploited for high throughput drug screening, strains expressing PDE2A, PDE4A, PDE4B, or PDE8A were pre-grown in EMM medium containing cAMP and then transferred to 5FOA medium in 384 well microtiter plates in the presence or absence of cAMP. OD600 measurements were taken after 48 hours incubation at 30° C.
(§3) Cells were pregrown in EMM medium [MP Biomedicals (Solon, Ohio), 3% glucose, filter-sterilized to avoid carmelization, which would introduce variability into the optical density of the medium] containing from 0 mM to 2.5 mM cAMP (or either 0.5 mM or 1.0 mM cGMP). This was to repress expression of the fbp1-ura4 reporter prior to exposure of cells to 5FOA medium. Cells were grown at 30° C. to exponential phase (approximately 10^7 cells/ml). […] Starting cell concentrations ranged from 0.5×10^5 to 4×10^5 cells/ml depending on the screening strain. […] Other positive control dishes contained 5 mM cAMP in the 5FOA medium for PDEs that lack appropriate control compounds. Cultures were grown for 48 hours at 30° C., sealed in an airtight container with moist paper towels to prevent evaporation. Optical densities (OD600) of cultures were measured using a microplate reader. Bioinformatic analysis of the results to determine composite Z scores was performed as previously described (1, 3).

[2] = molecular target: T2, PDE4B3 (Mus musculus, UniProt Q8VBU5); assay: 5FOA growth assay in fission yeast strain expressing PDE4B3; format: cell-based, Murine; conditions: for Composite Z score, PDE4B3: high throughput 5FOA growth screen
T2 construct: targets used in the assays are full-length proteins (as opposed to simply the catalytic domain); expressed in transfected cells; host or cells: Schizosaccharomyces pombe, PDE gene integrated in place of cgs2
T2 sequence (Q8VBU5 1-721): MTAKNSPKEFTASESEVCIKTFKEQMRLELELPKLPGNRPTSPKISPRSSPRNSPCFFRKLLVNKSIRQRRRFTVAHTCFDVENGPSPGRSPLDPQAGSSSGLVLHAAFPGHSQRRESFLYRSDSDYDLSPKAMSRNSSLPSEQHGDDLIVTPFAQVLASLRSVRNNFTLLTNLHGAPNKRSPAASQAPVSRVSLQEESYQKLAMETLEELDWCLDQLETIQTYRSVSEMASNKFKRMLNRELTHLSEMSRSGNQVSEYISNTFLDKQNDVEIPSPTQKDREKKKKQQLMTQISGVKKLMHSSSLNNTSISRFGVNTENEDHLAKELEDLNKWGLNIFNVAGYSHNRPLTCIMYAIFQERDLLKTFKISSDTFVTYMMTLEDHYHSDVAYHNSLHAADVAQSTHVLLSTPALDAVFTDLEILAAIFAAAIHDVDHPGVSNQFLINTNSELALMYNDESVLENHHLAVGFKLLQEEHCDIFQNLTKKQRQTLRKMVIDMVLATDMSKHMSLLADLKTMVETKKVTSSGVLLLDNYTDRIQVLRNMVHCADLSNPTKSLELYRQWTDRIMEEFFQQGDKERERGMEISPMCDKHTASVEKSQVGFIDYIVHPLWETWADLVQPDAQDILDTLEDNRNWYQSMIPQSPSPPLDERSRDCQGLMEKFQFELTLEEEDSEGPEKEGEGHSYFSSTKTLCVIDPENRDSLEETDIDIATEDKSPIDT
Description: as §1, §2, §3

Structure (SMILES)	Composite Z score, PDE4A1 [1]	Composite Z score, PDE4B3 [2]	1 Assay (20 uM) 4B3 ([2]; 20 uM) [ND ND ND ND]
Cc1c(C(=O)NCC2CCCO2)sc2ncnc(N3CCN(c4ccccc4)CC3)c12 (stereo not drawn) [1159 E19]	1.0613	–	–
Cc1c(C(=O)N2CCC3(CC2)OCCO3)sc2ncnc(N(C)c3ccccc3)c12 [1393 E07]	3.1682	−1.206	–
OCCN(CCO)c1ncnc2sc3c(c12)CCCC3 [1415 E01]	2.2076	0.8257	–
c1cn(CCCNc2ncnc3sc4c(c23)CCCC4)cn1 [1435 E20]	1.6661	0.5336	–
N#Cc1sc(C(N)=O)c(-c2ccco2)c1-c1ccco1 [1449, A02]	–	–	1.8244
CC1CCc2c(sc3nc(SCC(N)=O)nc(NCc4ccccc4)c23)C1 (stereo not drawn) [Compound 1157L22]	2.3434	–	–
CCOC(=O)c1sc2nc(CC(=O)OC)nc(NCCN3CCOCC3)c2c1C [Compound 1158A03]	0.3744	–	–
CCN(CC)CCCNC(=O)c1sc2ncnc(N3CCN(c4ccc(OC)cc4)CC3)c2c1C [Compound 1158C03]	2.6937	–	–
Cc1nc(N2CCN(C)CC2)c2c(C)c(C(=O)N3CCN(c4cccc(Cl)c4)CC3)sc2n1 [Compound 1158G03]	−0.078	–	–
CCOC(=O)CNC(=O)c1sc2ncnc(N3CCN(c4ccccc4F)CC3)c2c1C [Compound 1159A19]	2.4477	–	–
COCCCNC(=O)c1sc2ncnc(N3CCN(c4ccccc4F)CC3)c2c1C [Compound 1159C19]	2.6846	–	–
Cc1c(C(=O)Nc2ccc3c(c2)OCO3)sc2ncnc(N3CCc4ccccc4C3)c12 [Compound 1159C21]	3.9976	–	–
CCOC(=O)c1sc2ncnc(N3CCC4(CC3)OCCO4)c2c1C [Compound 1159G15]	5.3411	–	–
Cc1c(C(=O)NCc2ccco2)sc2ncnc(N3CCN(c4ccccc4)CC3)c12 [Compound 1159G19]	7.7398	–	–
Cc1c(C(=O)NCc2ccco2)sc2ncnc(N3CCc4ccccc4C3)c12 [Compound 1159I19]	26.235	–	–
COC(=O)c1ccccc1NC(=O)c1sc2ncnc(N3CCN(c4ccccn4)CC3)c2c1C [Compound 1159K09]	0.5937	–	–
CCCCNC(=O)c1sc2ncnc(N3CCc4ccccc4C3)c2c1C [Compound 1159K19]	5.4376	–	–
COCCNC(=O)c1sc2ncnc(N3CCN(c4ccccn4)CC3)c2c1C [Compound 1159M09]	1.1811	–	–
COc1cc(NC(=O)c2sc3nc(C)nc(N4CCCCC4C)c3c2C)cc(OC)c1OC (stereo not drawn) [Compound 1159M15]	17.363	–	–
Cc1c(C(=O)NCC2CCCO2)sc2ncnc(N3CCN(c4ccccc4F)CC3)c12 (stereo not drawn) [Compound 1159M17]	1.9801	–	–

Structure (SMILES)	Composite Z score, PDE4A1 [1]	Composite Z score, PDE4B3 [2]	1 Assay (20 uM) 4B3 ([2]; 20 uM) [ND ND ND ND]
COCCCNC(=O)c1sc2ncnc(N3CCc4ccccc4C3)c2c1C [Compound 1159M19]	5.0576	–	–
COc1cc(NC(=O)c2sc3nc(C)nc(N4CCOCC4)c3c2C)cc(OC)c1OC [Compound 1159O09]	0.8757	–	–
Cc1c(C(=O)NCc2ccco2)sc2ncnc(N3CCN(c4ccccc4F)CC3)c12 [Compound 1159O17]	3.616	–	–
Cc1c(C(=O)NCc2ccccn2)sc2ncnc(N3CCc4ccccc4C3)c12 [Compound 1159O19]	11.945	–	–
CCOC(=O)c1sc2nc(CC(=O)OC)nc(NCC(=O)OC)c2c1C [Compound 1379F18]	−0.126	3.0462	–
CCOC(=O)c1sc2ncnc(N3CCc4ccccc4C3)c2c1C [Compound 1379L18]	−0.753	1.8207	–
CC(C)(C)C(=O)Nc1ncnc2sc3c(c12)CCCC3 [Compound 1379O22]	1.5734	−0.703	–
CCN(CC)c1ncnc2sc3c(c12)CCC(C#N)(c1ccccc1)C3 (stereo not drawn) [Compound 1380G04]	20.429	−0.752	–
O=C(Nc1ncnc2sc3c(c12)CCC3)c1ccccc1 [Compound 1380I07]	36.663	−0.935	–
N#CC1(c2ccccc2)CCc2c(sc3ncnc(N4CCCC4)c23)C1 (stereo not drawn) [Compound 1380I09]	1.2506	−1.076	–
CCC(CO)Nc1nc(C)nc2sc3c(c12)CCC3 (stereo not drawn) [Compound 1380M03]	−1.217	−2.398	–
CC(C)C(Nc1ncnc2sc3c(c12)CCC3)C(=O)O (stereo not drawn) [Compound 1381A19]	1.3339	0.2365	–
O=C(O)C(Cc1ccccc1)Nc1ncnc2sc3c(c12)CCC3 (stereo not drawn) [Compound 1381O17]	−0.467	0.3352	–
COC(=O)Cc1nc(N2CCC(C)CC2)c2c3c(sc2n1)CCCC3 [Compound 1392J18]	10.795	0.7173	–
CCN(CC)c1ncnc2sc(C)c(C)c12 [Compound 1403J21]	1.647	0.0332	–
O=C(Nc1ncnc2sc3c(c12)CCCC3)C(F)(F)F [Compound 1406P09]	0.1456	0.5128	–
CC(C)N(C)c1ncnc2sc3c(c12)CCC3 [Compound 1407G21]	12.819	0.0445	–
CCNc1nc(C)nc2sc3c(c12)CCCC3 [Compound 1410G03]	2.9506	2.8289	–
CN(C)CCCNc1ncnc2sc3c(c12)CCCC3 [Compound 1414C02]	1.6456	21.25	–

Reference: US20100227853A1, “INHIBITORS OF CYCLIC AMP PHOSPHODIESTERASES” (Trustees of Boston College, priority 2008, published 2010)
